Measured values as given in patent US10981917B2, “Heterocyclic compound, its preparation method, and pharmaceutical composition comprising the same” (Daewoong Pharmaceutical Co., Ltd., priority 2017, dated 2021).

The compounds below were run against PRS (prolyl-tRNA synthetase) protein, PRS portion of EPRS (Homo sapiens (Human), UniProt P07814) (assay: PRS enzyme activity inhibition experiment ([3H]proline, liquid scintillation)). Settings: purified PRS protein, 37° C. for 5 to 10 minutes.
Assay type: biochemical
Outline: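 Values are % inhibition or IC50 ranges (A ≤100 nM, B 100–500 nM, C ≥500 nM) from [3H]proline incorporation measured by liquid scintillation. PRS portion of human EPRS, reacted 5–10 min at 37 °C in pH 7.4 phosphate buffer containing 5 mM ATP and tRNA, compound at 1 μM.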

Sequence of PRS (prolyl-tRNA synthetase) protein, PRS portion of EPRS (P07814 1007-1512): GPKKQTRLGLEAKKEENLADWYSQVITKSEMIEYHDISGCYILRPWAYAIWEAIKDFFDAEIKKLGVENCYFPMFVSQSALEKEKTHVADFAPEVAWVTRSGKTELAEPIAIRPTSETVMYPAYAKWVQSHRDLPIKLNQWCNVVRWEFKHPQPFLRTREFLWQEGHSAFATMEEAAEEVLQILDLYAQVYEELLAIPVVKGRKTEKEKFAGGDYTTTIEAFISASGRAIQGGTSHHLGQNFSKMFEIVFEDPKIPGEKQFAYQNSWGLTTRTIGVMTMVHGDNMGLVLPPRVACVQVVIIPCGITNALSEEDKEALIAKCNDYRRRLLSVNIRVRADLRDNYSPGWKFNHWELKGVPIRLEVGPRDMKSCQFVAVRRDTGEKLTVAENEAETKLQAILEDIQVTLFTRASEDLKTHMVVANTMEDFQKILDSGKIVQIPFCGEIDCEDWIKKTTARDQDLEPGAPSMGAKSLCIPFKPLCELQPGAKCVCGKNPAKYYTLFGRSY

IC50, ≥ 500 nM:
O[C@H]1CCCN[C@@H]1C#CCn1cnc2cc(Br)c(Br)cc21 [Example 228, (2R,3S)-2-(3-(5,6-dibromo-1H-benzo[d]imidazol-1-yl)prop-1-yn-1-yl)piperidin-3-ol]
Cc1c(F)ccc2c1ncn2CC#C[C@H]1NCCC[C@@H]1O [Example 229, (2R,3S)-2-(3-(5-fluoro-4-methyl-1H-benzo[d]imidazol-1-yl)prop-1-yn-1-yl)piperidin-3-ol]
O[C@H]1CCN[C@@H]1/C=C/Cn1cnc2cc(Cl)c(Cl)cc21 [Example 230, (2R,3S)-2-((E)-3-(5,6-dichloro-1H-benzo[d]imidazol-1-yl)prop-1-en-1-yl)pyrrolidin-3-ol]
